{
  "source": "patent EP2873675A1",
  "about": "“Peptide-based peroxidase inhibitors and methods of using same” (The Medical College of Wisconsin, Inc., priority 2013, dated 2015)",
  "key": {"[1]": {"tested_on": "MPO", "experiment": "MPO-mediated LDL Trp oxidation (Trp intrinsic fluorescence)", "type": "biochemical", "conditions": "MPO/H2O2/NO2- system, 30 min, room temperature", "experimental": "MPO-mediated LDL Trp Oxidation: Reaction mixtures containing LDL (0.15 mg/mL), NaNO2 (100 µM), H2O2 (100 µM), MPO (20 nM) and increasing concentrations of KYC in a phosphate buffer (100 mM, pH 7.4) containing DTPA (100 µM) were incubated at room temperature for 30 min. Reactions were stopped by addition of catalase (2,000 units/mL) and the oxidation of Trp in LDL was determined by measuring changes in the intrinsic fluorescence of Trp (Ex 294nm/Em 345 nm) using a LC-50 fluorometer (Perkin Elmer, Waltham MA)."}, "[2]": {"experiment": "Solubility in water / physiological buffers", "type": "physicochemical", "conditions": "can be added directly to physiological buffers"}, "[3]": {"tested_on": "BAEC", "experiment": "MPO-mediated BAEC injury (cell morphology)", "type": "cell-based, Bovine", "conditions": "20 min"}, "[4]": {"tested_on": "MPO", "experiment": "MPO-mediated LDL malondialdehyde (MDA) formation", "type": "biochemical", "conditions": "increasing concentrations; LDL 0.5 mg/mL, MPO 50 nM, H2O2 50 µM, NO2 50 µM", "experimental": "MPO-mediated LDL Malondialdehyde (MDA) Formation: Reaction mixtures contained LDL (0.5 mg/mL), NaNO2 (50 µM), H2O2 (50 µM), MPO (50 nM) and increasing concentrations of KYC in a phosphate buffer (100 mM, pH 7.4) containing DTPA (100 µM). After incubation at 37 °C for 4 h, the reactions were stopped by addition of catalase (2,000 units/mL). The formation of MDA was determined according to a published procedure. Briefly, incubation mixtures (containing 25 mM BHT) were adjusted to pH 1.5 and incubated at 60 °C for 80 min to hydrolyze the Schiff Bases formed from MDA and protein. The samples were mixed with 3-fold volume of N-methyl-2-phenylindole (13.4 mM in acetonitrile/methanol (3:1)). After centrifugation (13000 g, 5 min) 330 µL of the supernatants were mixed with 57.5 µL of concentrated HCl and incubated at 45 °C for another 60 min. Finally, after centrifugation (13000 g, 5 min), total MDA in the samples was determined from the absorbance at 586 nm using a UV-Vis spectrophotometer (Agilent Model 8453)."}, "[5]": {"tested_on": "MPO", "experiment": "MPO-mediated LDL oxidation (conjugated diene formation, absorbance at 234 nm)", "type": "biochemical", "conditions": "for conjugated diene formation in the LDL solution: for more than 2 hours", "experimental": "MPO-mediated oxidation of LDL. Reaction mixtures contained LDL (0.15 mg/ml), NaNO2 (100 µM), H2O2 (300 µM), MPO (20 nM) and various concentrations of KYC in a potassium phosphate buffer (100 mM, pH 7.4) containing DTPA (100 µM). LDL oxidation was monitored at 234 nm at room temperature on a HP UV/VIS spectrometer. Absorbance traces represent the average of duplicate experiments.\nMPO-mediated LDL Oxidation. Reaction mixtures contained LDL (0.15 mg/mL), NaNO2 (100 µM), H2O2 (100 µM), MPO (20 nM) and increasing concentrations of KYC in a phosphate buffer (100 mM, pH 7.4) containing DTPA (100 µM). Rates of LDL oxidation were monitored at room temperature at 234 nm, the wavelength maximum for conjugated dienes.\nMPO-mediated LDL Conjugated Diene Formation: Reaction mixtures contained LDL (0.15 mg/mL), NaNO2 (100 µM), H2O2 (100 µM), MPO (20 nM) and increasing concentrations of KYC or equimolar concentrations of various compounds in a phosphate buffer (100 mM, pH 7.4) containing DTPA (100 µM). Rates of LDL conjugated diene formation were determined by following changes in absorbance at 234 nm, the wavelength maximum for conjugated dienes, on a UV-Vis spectrophotometer (Agilent Model 8453) at room temperature."}, "[6]": {"tested_on": "NADPH oxidase (NOX)", "experiment": "PMA-stimulated HL-60 cell superoxide formation (SOD-inhibitable cytochrome C reduction)", "type": "cell-based, human", "conditions": "cytochrome C assay", "experimental": "PMA-induced Superoxide Anion Formation. HL-60 cells were cultured in RPMI 1640 medium containing 10 % FCS (passage 20-50). HL-60 cells were harvested by centrifugation (1000 rpm, 10 min), washed 2X with phosphate buffer (10 mM, pH 7.4) with NaCl (138 mM), KCl (2.67 mM), CaCl2 (0.901 mM), MgCl2 (0.493 mM) and glucose (1mg/ml) to remove culture medium. The HL-60 cells (6 x10^6/0.5ml) were re-suspended in DPBS. After stimulation with PMA (10 µM), the HL-60 cells were incubated with cytochrome C (40 µM) with or without superoxide dismutase at 37°C for 30 min. The reaction was stopped by centrifugation. Cytochrome C reduction was measured at 550 nm on a UV-Vis spectrophotometer (Agilent, Model 8453).\nPMA-stimulated HL-60 cell O2^•- Formation: HL-60 cells were harvested by centrifugation (1000 rpm, 10 min), washed twice with DPBS with glucose to remove culture medium. The HL-60 cells (1.2 x10^7/ml) were re-suspended in DPBS with glucose. After stimulation with PMA (10 µM), the HL-60 cells were incubated with cytochrome C (40 µM) with or without superoxide dismutase (500 units/mL) at 37 °C for 10 min and then the HL-60 cells were removed by centrifugation. Cytochrome C reduction in supernatants was measured at 550 nm using a UV-Vis spectrophotometer (Agilent, Model 8453)."}, "[7]": {"tested_on": "MPO", "experiment": "MPO-mediated nitration of bovine serum albumin (western blot)", "type": "biochemical", "conditions": "for MPO-mediated BSA nitration: H2O2 100 µM, nitrite 100 µM", "experimental": "MPO-mediated Nitration of Bovine Serum Albumin (BSA). BSA (0.5 mg/mL) was incubated with MPO (20 nM), H2O2 (100 µM), nitrite (100 µM) and increasing concentrations of KYC in phosphate buffer (100 mM, pH 7.4) containing DTPA (100 µM) for 30 min. Reactions were stopped by addition of catalase. Nitrotyrosine formation was assessed by western blot analysis.\nMPO-mediated Nitration of Bovine Serum Albumin (BSA): BSA (0.5 mg/mL) was incubated with MPO (20 nM), H2O2 (25 µM), NaNO2 (50 µM) and increasing concentrations of KYC in phosphate buffer (100 mM, pH 7.4) containing DTPA (100 µM) for 30 min. Reactions were halted by addition of catalase (2,000 units/mL). NO2Tyr formation was assessed by western blot analysis with an anti-NO2Tyr rabbit polyclonal antibody (EMD, Gibbstown, NJ)."}},
  "note": "Entries after “also recorded” stand apart in the source; their conditions may differ. Residues, ends and D or L forms follow the SMILES beside them.",
  "data": [
    {"smiles": "CC(=O)N[C@@H](CCCCN)C(=O)N[C@@H](Cc1ccc(O)cc1)C(=O)N[C@@H](CS)C(N)=O", "note": "[KYC, N-acetyl Lysyltyrosylcysteine amide] (Ac-Lys-Tyr-Cys-NH2)", "values": [
      {"measurement": "MPO-dependent oxidation of Trp residues in LDL", "setting": "[1]", "result": "protected the Trp residues in LDL against MPO-dependent oxidation"},
      {"measurement": "solubility in water", "setting": "[2]", "result": "highly water soluble"},
      {"measurement": "protection of BAEC from MPO-induced injury (morphology)", "setting": "[3]; 25 µM, higher MPO (5 µg/ml) or H2O2 (100 µM), data not shown", "result": "protected BAEC from even higher concentrations of MPO"},
      {"measurement": "protection of BAEC from MPO-induced injury (morphology)", "setting": "[3]; 50 µM, MPO 2.5 µg/ml, H2O2 50 µM", "result": "almost the same morphology as cultures that were not exposed to MPO"},
      {"measurement": "MPO-mediated MDA formation in LDL", "setting": "[4]", "result": "dose-dependently inhibited"},
      {"measurement": "lag time of conjugated diene formation", "setting": "[5]; 4 µM, MPO/H2O2/nitrite, H2O2 300 µM, lag time without peptide 25 min", "result": 90, "unit": "min"},
      {"measurement": "reduction of the rate of LDL oxidation", "setting": "[5]; 4 µM, at the end of the 2 hour incubation, on the basis of absorbance values", "result": "~80", "unit": "%"},
      {"measurement": "conjugated diene formation in the LDL solution", "setting": "[5]; 20 µM, MPO/H2O2/nitrite, H2O2 300 µM", "result": "totally suppresses"},
      {"measurement": "MPO/H2O2/nitrite-mediated LDL oxidation", "setting": "[5]; 25 µM, H2O2 100 µM, NaNO2 100 µM, MPO 20 nM", "result": "completely suppressed"},
      {"measurement": "conjugated diene formation in the LDL solution", "setting": "[5]; 100 µM, MPO/H2O2/nitrite, H2O2 300 µM", "result": "totally suppresses"},
      {"measurement": "O2•- production in PMA-stimulated HL-60 cells", "setting": "[6]", "result": "neither KYC nor KYC disulfide have any significant effect; also recorded: Neither KYC nor KYC disulfide had any significant effect"},
      {"measurement": "MPO-mediated BSA nitration", "setting": "[7]; 30 µM", "result": "inhibits"},
      {"measurement": "NO2Tyr formation in BSA", "setting": "[7]; 50 µM, H2O2 25 µM, NaNO2 50 µM", "result": "essentially ablated"},
      {"measurement": "MPO-mediated BSA nitration", "setting": "[7]; 250 µM", "result": "essentially ablates"}
    ]}
  ]
}
